# Patent US20240285660A1, “COMPOSITION FOR WOUND RELIEF AND INHIBITING A PHD PROTEIN AND METHODS OF TREATMENT” (Curapep LLC, priority 2021, published 2024)
# Where “and” joins values, the source holds several entries; their conditions need not be identical. Equal entries are not always repeated.
# Tested on: HIF1-a protein in L929 cells
# Test: In vitro HIF stabilization (HIF1-a ELISA, normalized to DNA content)
# Type: cell-based
# Conditions: for level of HIF-1a compared to the negative control cells: alone, 0.01, 0.1, 1, 10 and 100 micromolar, L929 cells
SMILES,HIF content increase (normalized to the DNA content) compared to the negative control,level of HIF-1a compared to the negative control cells
[Cl-].[Cl-].[Co+2] [CoCl2],2.21 fold and 2.16 fold,–
"O=c1cc(-c2ccccc2)oc2ccccc12 [Flavone, 2-phenylchromen-4-one]",–,either a decrease of HIF-1a or the same level of HIF-1a
"O=c1c(-c2ccc(O)cc2)coc2c([C@@H]3O[C@H](CO)[C@@H](O)[C@H](O)[C@H]3O)c(O)ccc12 [Puerarin, 7-hydroxy-3-(4-hydroxyphenyl)-8-[(2S,3R,4R,5S,6R)-3,4,5-trihydroxy-6-(hydroxymethyl)oxan-2-yl]chromen-4-one]",–,either a decrease of HIF-1a or the same level of HIF-1a
